The source of these data is patent US20080188499A1, “Carbo- and Hetero-Cyclic Antibiotics and Use Thereof” (priority 2004, published 2008).

Values after ≈ are worked out from the molar mass of the structure shown. Like-named read-outs stand apart in the source and are kept apart here. Bounds are passed on as bounds.

The test system of one data set is Burkholderia cepacia. The data set can be described thus: MIC determination, Burkholderia cepacia. It counts as cell-based. As to the method:
(§1) Bacteria. Susceptibility tests were performed against several bacterial species following the recommendations from the National Committee for […] (NCCLS). The MICs were determined by a broth microdilution technique using a final volume of 100 μl of cation-adjusted Mueller Hinton Broth (MHBCA) and a bacterial inoculum of 10^5-10^6 Colony Forming Units (CFU)/ml. The inocula were verified and precisely determined by applying 10 μl drops of 10 fold dilutions onto Triptic Soy Agar plates. The CFU were counted after an incubation of 24 h at 35° C. Any experiment showing an inoculum that was more or less than 10^5-10^6 CFU/ml was rejected. Control antibiotics and test compounds were prepared at a concentration equivalent to 2 fold the highest desired final concentration. Compounds were then diluted directly in the 96-well microtiter plates by serial 2-fold dilutions using a multichannel pipette. Microtiter plates were incubated for 24 h at 35° C. and growth was recorded by using a microtiter plate reader at 650 nm as well as by visual observation. The MIC was defined as the lowest concentration of compound yielding no visible growth. At least two commercial antibiotics (e.g., imipenem and vancomycin) were always included as internal microtiter plate controls in each MIC assay.

A further data set deals with B. atrophaeus. Kind of data set: MIC determination, B. atrophaeus. It counts as cell-based. To be noted: Bacillus atrophaeus. As to the method: as §1
The next data set relates to Yersinia enterocolytica. The data set can be described thus: MIC determination, Yersinia enterocolytica. In kind it is cell-based. The method, then: as §1
A further data set relates to B. subtilis. Kind of data set: MIC determination, B. subtilis. It counts as cell-based. Particulars: Bacillus subtilis. The method, then:
as §1

Another data set deals with E. faecalis. The data set can be described thus: MIC determination, Enterococci. In kind it is cell-based. To be noted: Enterococcus faecalis. The method, then: as §1
A further data set concerns Haemophilus influenzae. The data set can be described thus: MIC determination, Haemophilus influenzae. It counts as cell-based. The method, then: as §1
(§2) Fastidious bacteria. […]

For data set [1], the system named is Branhamella (Moraxella) catarrhalis. Kind of data set: MIC determination, Branhamella (Moraxella) catarrhalis. In kind it is cell-based. The method, then: as §1, §2
The test system of data set [2] is Methicillin-Sensitive S. aureus strains (MSSA). The data set can be described thus: MIC determination, Methicillin-Sensitive S. aureus. In kind it is cell-based. Particulars: Staphylococcus aureus. As to the method:
as §1

The subject of data set [3] is bacterial genus Mycobacterium. Kind of data set: MIC determination, Mycobacterium. In kind it is cell-based, Mycobacterium smegmatis. As to the method: as §1, §2
The subject of the next data set is anaerobic bacteria. Kind of data set: MIC determination, anaerobic bacteria. In kind it is cell-based. Particulars: Bacteroides fragilis. The method, then: as §1, §2
The subject of another data set is B. cereus. Kind of data set: MIC determination, B. cereus. To be noted: Bacillus cereus. It counts as cell-based. The method, then: as §1
For another data set, the system named is MRSA strains. The data set can be described thus: MIC determination by broth microdilution, antibiotic multi-resistant MRSA strains. It counts as cell-based, S. aureus. The method, then: as §1
In general terms: In broth dilution the organism is exposed to a series of concentrations in liquid medium.

The next data set has as its system E. coli ATCC 25922. The data set can be described thus: MIC determination by broth microdilution, E. coli. It counts as cell-based, Escherichia coli. As to the method: as §1
The subject of another data set is DNA metabolism. Kind of data set: Mode of action studies: macromolecular biosynthesis assays (incorporation of radiolabeled precursors). To be noted: FIG. 1; initial mode of action studies. It counts as cell-based. As to the method:
Mode of action studies. Macromolecular biosynthesis assays were performed to identify the microbial cellular processes selectively affected by antibiotic compounds. Exponentially growing bacteria in MHB were washed and diluted in a complete synthetic medium to an optical density of 0.2 (at 600 nm). Cells were then distributed in 96-well plates containing serially diluted antibiotic compounds and radiolabeled precursors. The radiolabeled precursors were D-[^3H]-alanine for peptidoglycan synthesis, [^3H]-thymidine for DNA synthesis, [^3H]-uridine for RNA synthesis and [^3H]-leucine for protein synthesis. Incorporation was allowed for 30 minutes at 35° C. before macromolecules were precipitated for 1 hour on ice in the presence of 10% trichloroacetic acid. The radioactive precipitates were then collected onto GC filters and the radioactivity measured by liquid scintillation counting. Data were expressed as the percentage of radioactivity incorporated compared to control cells grown in the absence of antibiotic compound.

For the next data set, the system named is S. aureus strain Newman. Kind of data set: In vivo efficacy: S. aureus model of systemic infection in the mouse. To be noted: for antimicrobial activity in vivo (viable bacteria in the kidneys): S. aureus systemic infection, administrated by gavage 1 hour post-infection, kidneys 5 hours after inoculation. As to the method: In vivo efficacy. The antimicrobial activity of compounds was also evaluated in a S. aureus model of systemic infection in the mouse. To produce the systemic infection, CD-1 female mice (20 g) were injected intra-peritoneally with 10^7 CFU of S. aureus strain Newman suspended in 0.5 ml of endotoxin-free PBS containing 5% mucin (w/v). The compounds were administrated at 1 hour post-infection and kidneys harvested and pooled, for each animal, 5 hours after bacterial inoculation. Tissues were homogenized in PBS and homogenates serially diluted and plated for CFU determination.

The mark [4] stands for this setting: Escherichia coli, ATCC25922, E. coli ATCC 25922, read-out: MIC.

Take `CN1CCN(c2cc3nc(/C=C/c4ccc([N+](=O)[O-])o4)nc(Nc4ccc(O)c(O)c4)c3cc2F)CC1` [Example VIII compound “q”]: the MIC was determined as 8 mg/L (≈ 15.8 µM) in the data set on Burkholderia cepacia; 8 mg/L (≈ 15.8 µM) in the data set on B. atrophaeus; 8 mg/L (≈ 15.8 µM) in the data set with Yersinia enterocolytica; 8 mg/L (≈ 15.8 µM) with B. subtilis; 8 mg/L (≈ 15.8 µM) in the data set with E. faecalis; 1 mg/L (≈ 1.97 µM) with Haemophilus influenzae. Also, the MIC was 1 mg/L (≈ 1.97 µM) in data set [1]; 4 to 8 mg/L (≈ 7.9 to 15.8 µM) in data set [2]; 8 mg/L (≈ 15.8 µM) in [3]; 8 mg/L (≈ 15.8 µM) in the data set on anaerobic bacteria; 8 mg/L (≈ 15.8 µM) against B. cereus; 8 mg/L (≈ 15.8 µM) in the data set on MRSA strains (Staphylococcus aureus, MRSA, MRSA strain Sa211c, read-out: MIC). Moreover, the MIC worked out at 8 mg/L (≈ 15.8 µM) in the data set with MRSA strains (Staphylococcus aureus, MRSA, MRSA strain Sa212c, read-out: MIC); 4 mg/L (≈ 7.9 µM) in the data set on MRSA strains (Staphylococcus aureus, MRSA, MRSA strain Sa220c, read-out: MIC); 8 mg/L (≈ 15.8 µM) in the data set on MRSA strains (Staphylococcus aureus, MRSA, MRSA strain Sa224c, read-out: MIC); 8 mg/L (≈ 15.8 µM) in the data set on MRSA strains (Staphylococcus aureus, MRSA, MRSA strain Sa228c, read-out: MIC); 8 mg/L (≈ 15.8 µM) with MRSA strains (Staphylococcus aureus, MRSA, MRSA strain Sa234c, read-out: MIC); 8 mg/L (≈ 15.8 µM) with MRSA strains (Staphylococcus aureus, MRSA, MRSA strain Sa248c, read-out: MIC). For the same molecule, the MIC in the data set on MRSA strains (Staphylococcus aureus, MRSA, MRSA strain Sa249c, read-out: MIC) is 8 mg/L (≈ 15.8 µM); with MRSA strains (Staphylococcus aureus, MRSA, MRSA strain Sa253c, read-out: MIC) it was 8 mg/L (≈ 15.8 µM); in the data set on MRSA strains (Staphylococcus aureus, MRSA, Methicillin-Resistant S. aureus strains (MRSA), read-out: MIC), 4 to 8 mg/L (≈ 7.9 to 15.8 µM).
As for `CCn1cc(C(=O)O)c(=O)c2cc(F)c(N3CCNCC3)cc21` [Norfloxacin], the MIC with E. coli ATCC 25922 (setting [4]) is 0.03 to 0.06 mg/L (≈ 0.0939 to 0.188 µM).
Turning to `CN[C@H](CC(C)C)C(=O)N[C@H]1C(=O)N[C@@H](CC(N)=O)C(=O)N[C@H]2C(=O)N[C@H]3C(=O)N[C@H](C(=O)N[C@H](C(=O)O)c4cc(O)cc(O)c4-c4cc3ccc4O)[C@H](O)c3ccc(c(Cl)c3)Oc3cc2cc(c3O[C@@H]2O[C@H](CO)[C@@H](O)[C@H](O)[C@H]2O[C@H]2C[C@](C)(N)[C@H](O)[C@H](C)O2)Oc2ccc(cc2Cl)[C@H]1O` [Vancomycin], in the data set with E. coli ATCC 25922 (Escherichia coli, ATCC25922), the MIC is more than 64 mg/L.
Turning to `O=[N+]([O-])c1ccc(C=Cc2nc(Nc3ccc(O)c(O)c3)c3ccccc3n2)o1` [Example 1, Compound VI, 2-[2-(5-nitro-2-furyl)vinyl]-4-(3,4-dihydroxyanilino)quinazoline], the MIC in the data set with E. coli ATCC 25922 (setting [4]) came out at 0.5 mg/L (≈ 1.28 µM). In the data set on DNA metabolism, the “mode of action (cellular process affected, incorporation of radiolabeled precursors into macromolecules)” value is reported as “inhibition of DNA metabolism”. Further, in the data set with S. aureus strain Newman (S. aureus systemic infection model), the toxicity in vivo entry is “relatively low toxicity”. Besides, the “antimicrobial activity in vivo (viable bacteria in the kidneys)” value is on record as “active in vivo” with S. aureus strain Newman (listed as 2-[2-(5-nitro-2-furyl)vinyl]-4-(3,4-dihydroxyanilino)-quinazoline) and “reduced the presence of viable bacteria in the kidneys” in the data set on S. aureus strain Newman (listed as Example 1 compound VI).
Turning to Gentamicin [reference compound], the MIC with E. coli ATCC 25922 (E. coli ATCC 25922) is 0.5 to 2 mg/L; against MRSA strains (MRSA strain Sa211c) it was 1 mg/L; with MRSA strains (MRSA strain Sa212c), 0.25 mg/L; in the data set on MRSA strains (MRSA strain Sa220c) it was 0.5 mg/L; against MRSA strains (MRSA strain Sa224c), 0.25 mg/L; against MRSA strains (MRSA strain Sa228c) it was 32 mg/L. The same molecule yielded an MIC with MRSA strains (MRSA strain Sa234c) of 1 mg/L.
